Earlier results in patent US4842859A, “Pharmaceutical compositions for reducing hyperlipidemia and platelet-aggregation” (priority 1986, dated 1989).

Assays:
[1] = patients; prior art; listed as clofibrate
[2] = test system: transient ischemic attacks; settings: men; prior art

Row | SMILES | side effects / toxic effects [1] | effect on incidence of transient ischemic attacks [2]
1 | CCOC(=O)C(C)(C)Oc1ccc(Cl)cc1 [Clofibrate] | decreased libido and breast tenderness | 
2 | CC(=O)Oc1ccccc1C(=O)O [Aspirin] |  | decrease the incidence of transient ischemic attacks
